Test system: not listed separately
Experiment: Salt screening of compound I with several acids (aspect of the salt)
Format: physicochemical
Conditions: free base and acid in hot ethanol, cooled, solvent evaporated
Experimental: To select the most suitable salt of compound I and minimize the undesirable hygroscopic properties of the hydrochloride, several acids were tested. The free base of compound I was dissolved in hot ethanol, and then acid solution in hot ethanol was added. The mixture was then stirred and heated for 30 min. After cooling to room temperature, the solvent was removed by evaporation. […]

| Compound | Aspect of the salt |
| --- | --- |
| Fumaric | White foam |
| O=C(O)CC(O)C(=O)O.O=C(OC1CN2CCC1CC2)N(Cc1cc(F)c(F)c(F)c1)c1cccc(F)c1 [D-Malic] | Hygroscopic red foam |
| O=C(O)CCC(=O)O [Succinic] | Hygroscopic white foam |
| O=C(O)CC(O)C(=O)O.O=C(OC1CN2CCC1CC2)N(Cc1cc(F)c(F)c(F)c1)c1cccc(F)c1 (racemic) [DL-Malic] | Hygroscopic red foam |
| Propionic | Hygroscopic white foam |
| O=C(O)CC(O)C(=O)O.O=C(OC1CN2CCC1CC2)N(Cc1cc(F)c(F)c(F)c1)c1cccc(F)c1.O=C(OC1CN2CCC1CC2)N(Cc1cc(F)c(F)c(F)c1)c1cccc(F)c1 [L-Malic (0.5 eq)] | Oil |
| Citric | Oil |
| O=C(O)C(=O)O.O=C(OC1CN2CCC1CC2)N(Cc1cc(F)c(F)c(F)c1)c1cccc(F)c1 (stereo not shown) [Oxalic] | Hygroscopic white foam |
| CC(O)C(=O)O.O=C(OC1CN2CCC1CC2)N(Cc1cc(F)c(F)c(F)c1)c1cccc(F)c1 (racemic) [DL-Lactic] | Oil |
| O=C(O)C=CC(=O)O.O=C(OC1CN2CCC1CC2)N(Cc1cc(F)c(F)c(F)c1)c1cccc(F)c1 (stereo not shown) [Maleic] | Oil |
| O=C(OC1CN2CCC1CC2)N(Cc1cc(F)c(F)c(F)c1)c1cccc(F)c1.O=S(=O)(O)c1ccccc1 (stereo not shown) [Benzenesulphonic] | Oil |
| CC1(C)C2CCC1(CS(=O)(=O)O)C(=O)C2.O=C(OC1CN2CCC1CC2)N(Cc1cc(F)c(F)c(F)c1)c1cccc(F)c1 [(S)-10-Camphorsulfonic] | Oil |
| O=C(O)C(O)C(O)C(=O)O.O=C(OC1CN2CCC1CC2)N(Cc1cc(F)c(F)c(F)c1)c1cccc(F)c1 (racemic) | Adding MTBE precipitated a white solid |
| O=C(O)C(O)c1ccccc1.O=C(OC1CN2CCC1CC2)N(Cc1cc(F)c(F)c(F)c1)c1cccc(F)c1 (stereo not shown) [Mandelic] | White foam |
| O=C(OC1CN2CCC1CC2)N(Cc1cc(F)c(F)c(F)c1)c1cccc(F)c1.O=C1OC(C(O)CO)C(O)=C1O (stereo not drawn) [L(+)-Ascorbic] | White foam |
| CC=CC=CC(=O)O.O=C(OC1CN2CCC1CC2)N(Cc1cc(F)c(F)c(F)c1)c1cccc(F)c1 (stereo not shown) [Sorbic] | Oil |
| L-Tartaric | White foam |
| O=C(O)C(O)C(O)C(=O)O.O=C(OC1CN2CCC1CC2)N(Cc1cc(F)c(F)c(F)c1)c1cccc(F)c1.O=C(OC1CN2CCC1CC2)N(Cc1cc(F)c(F)c(F)c1)c1cccc(F)c1 [D-Tartaric (0.5 eq)] | White solid crystal precipitated in EtOH. |
| O=C(O)C=CC(=O)O.O=C(OC1CN2CCC1CC2)N(Cc1cc(F)c(F)c(F)c1)c1cccc(F)c1.O=C(OC1CN2CCC1CC2)N(Cc1cc(F)c(F)c(F)c1)c1cccc(F)c1 (stereo not shown) [Fumaric (0.5 eq)] | White foam |
| O=C(O)CC(=O)O [Malonic] | Oil |
| CS(=O)(=O)O.O=C(OC1CN2CCC1CC2)N(Cc1cc(F)c(F)c(F)c1)c1cccc(F)c1 (stereo not shown) [Methanesulphonic] | Oil |
| O=C(O)C(O)C(O)C(=O)O.O=C(OC1CN2CCC1CC2)N(Cc1cc(F)c(F)c(F)c1)c1cccc(F)c1.O=C(OC1CN2CCC1CC2)N(Cc1cc(F)c(F)c(F)c1)c1cccc(F)c1 [L-Tartaric (0.5 eq)] | White foam |
| O=C(O)CC(O)C(=O)O.O=C(OC1CN2CCC1CC2)N(Cc1cc(F)c(F)c(F)c1)c1cccc(F)c1.O=C(OC1CN2CCC1CC2)N(Cc1cc(F)c(F)c(F)c1)c1cccc(F)c1 [D-Malic (0.5 eq)] | Hygroscopic red foam |
| O=C(O)C(O)c1ccccc1.O=C(OC1CN2CCC1CC2)N(Cc1cc(F)c(F)c(F)c1)c1cccc(F)c1 [(S)-Mandelic] | Oil |
| CC1(C)C2CCC1(CS(=O)(=O)O)C(=O)C2.O=C(OC1CN2CCC1CC2)N(Cc1cc(F)c(F)c(F)c1)c1cccc(F)c1 (racemic) [(RS)-10-Camphorsulfonic] | Hygroscopic pink foam |
| O=C(O)CC(O)C(=O)O.O=C(OC1CN2CCC1CC2)N(Cc1cc(F)c(F)c(F)c1)c1cccc(F)c1 [L-Malic] | Oil |
| O=C(O)CC(O)C(=O)O.O=C(OC1CN2CCC1CC2)N(Cc1cc(F)c(F)c(F)c1)c1cccc(F)c1.O=C(OC1CN2CCC1CC2)N(Cc1cc(F)c(F)c(F)c1)c1cccc(F)c1 (racemic) [DL-Malic (0.5 eq)] | Hygroscopic red foam |

Test system: patients suffering from Overactive Bladder syndrome
Experiment: Phase II clinical trial: pharmacodynamics in overactive bladder patients (urodynamic assessments, tolerability)
Conditions: 4 mg o.d., 4 weeks
Experimental: A pharmacodynamic study of tarafenacin tartrate in patients suffering from Overactive Bladder syndrome was performed to obtain first efficacy and tolerability data in this population.
The study was randomised, double-blind, placebo and active-controlled. Patients received tarafenacin tartrate at the dose of 0.1 or 0.2 mg, tolterodine 4 mg or placebo o.d. during 4 weeks, just after a 2 week single-blind wash-out period in which all patients received placebo. Urodynamic assessments were performed at baseline and after 4 weeks administration.
It was planned to screen approximately 100 patients and randomize 77 patients, to obtain outcome data on 63 patients. Patients who entered the study were randomized into the four treatment groups during the double blind treatment period.
After a Screening visit and a 14 day washout single blind period (placebo run in), patients were randomized to one of the four treatment arms by a 2:2:2:1 randomization schedule. In a single blind period, only the patients were blinded. During the treatment period, each patient received tarafenacin tartrate 0.1 mg/tarafenacin tartrate 0.2 mg/tolterodine (ER) 4 mg/placebo. Identical capsules were used to maintain the study blind.
The end of study procedures were performed at the Day 28 visit (End of Treatment [EOT]). A study follow up was conducted at Day 35 either telephonically or the patient was called to the clinic (End of Study [EOS]).
The primary endpoint was the pharmacodynamic endpoints and they were assessed as the mean change from baseline to Day 28 in urodynamic, salivary flow, and accommodation near point pharmacodynamic assessments.

| Compound | incidence of treatment emergent adverse events [%] |
| --- | --- |
| Cc1ccc(O)c([C@H](CCN(C(C)C)C(C)C)c2ccccc2)c1 [tolterodine, reference compound] | 36 |

Same assay, conditions: human, in vivo

| Compound | increase in infused volume [mL] | increase in volume at first desire to void [mL] | increase in volume at strong desire to void [mL] |
| --- | --- | --- | --- |
| Cc1ccc(O)c([C@H](CCN(C(C)C)C(C)C)c2ccccc2)c1 [tolterodine, reference compound] | 20 | 33 | 42 |

Source: patent US8871787B2, “Stable crystalline salt of (R)-3-fluorophenyl-3,4,5-trifluorobenzylcarbamic acid 1-azabicyclo [2.2.2]oct-3-yl ester” (Laboratorios Salvat, S.A., priority 2007, dated 2014)
